In ChEMBL document CHEMBL1821583 (Bioorg Med Chem Lett, 2011):

Key:
[1] = Inhibition of hedgehog signaling pathway in mouse Shh Light2 cells by Gli-dependent reporter gene assay; assay type: functional, cell-based; settings: Shh Light II
Protein smoothened [2] = target: T1, Protein smoothened (Homo sapiens, UniProt Q99835); assay: Displacement of BODIPY-cyclopamine from Smo expressed in COS-1 cells after 4 to 6 hrs by Flow Cytometry analysis in presence of 2% fetal calf serum; assay type: cell-based
Protein smoothened [3] = target: T1, Protein smoothened; assay: Displacement of BODIPY-cyclopamine from Smo expressed in COS-1 cells after 4 to 6 hrs by Flow Cytometry analysis in presence of 20% normal human serum; assay type: cell-based
[4] = Lipophilicity, log D of the compound; assay type: physicochemical; settings: octanol/water
[5] = Intrinsic clearance in rat liver microsomes assessed per mg of protein; assay type: ADME, Microsome
[6] = Intrinsic clearance in human liver microsomes assessed per mg of protein; assay type: ADME, Microsome
[7] = target: Voltage-gated inwardly rectifying potassium channel KCNH2 (Homo sapiens, UniProt Q12809)
[8] = Clearance in iv dosed rat; assay type: ADME, organism-based; settings: in vivo

Chain of Voltage-gated inwardly rectifying potassium channel KCNH2 (Q12809 whole entry): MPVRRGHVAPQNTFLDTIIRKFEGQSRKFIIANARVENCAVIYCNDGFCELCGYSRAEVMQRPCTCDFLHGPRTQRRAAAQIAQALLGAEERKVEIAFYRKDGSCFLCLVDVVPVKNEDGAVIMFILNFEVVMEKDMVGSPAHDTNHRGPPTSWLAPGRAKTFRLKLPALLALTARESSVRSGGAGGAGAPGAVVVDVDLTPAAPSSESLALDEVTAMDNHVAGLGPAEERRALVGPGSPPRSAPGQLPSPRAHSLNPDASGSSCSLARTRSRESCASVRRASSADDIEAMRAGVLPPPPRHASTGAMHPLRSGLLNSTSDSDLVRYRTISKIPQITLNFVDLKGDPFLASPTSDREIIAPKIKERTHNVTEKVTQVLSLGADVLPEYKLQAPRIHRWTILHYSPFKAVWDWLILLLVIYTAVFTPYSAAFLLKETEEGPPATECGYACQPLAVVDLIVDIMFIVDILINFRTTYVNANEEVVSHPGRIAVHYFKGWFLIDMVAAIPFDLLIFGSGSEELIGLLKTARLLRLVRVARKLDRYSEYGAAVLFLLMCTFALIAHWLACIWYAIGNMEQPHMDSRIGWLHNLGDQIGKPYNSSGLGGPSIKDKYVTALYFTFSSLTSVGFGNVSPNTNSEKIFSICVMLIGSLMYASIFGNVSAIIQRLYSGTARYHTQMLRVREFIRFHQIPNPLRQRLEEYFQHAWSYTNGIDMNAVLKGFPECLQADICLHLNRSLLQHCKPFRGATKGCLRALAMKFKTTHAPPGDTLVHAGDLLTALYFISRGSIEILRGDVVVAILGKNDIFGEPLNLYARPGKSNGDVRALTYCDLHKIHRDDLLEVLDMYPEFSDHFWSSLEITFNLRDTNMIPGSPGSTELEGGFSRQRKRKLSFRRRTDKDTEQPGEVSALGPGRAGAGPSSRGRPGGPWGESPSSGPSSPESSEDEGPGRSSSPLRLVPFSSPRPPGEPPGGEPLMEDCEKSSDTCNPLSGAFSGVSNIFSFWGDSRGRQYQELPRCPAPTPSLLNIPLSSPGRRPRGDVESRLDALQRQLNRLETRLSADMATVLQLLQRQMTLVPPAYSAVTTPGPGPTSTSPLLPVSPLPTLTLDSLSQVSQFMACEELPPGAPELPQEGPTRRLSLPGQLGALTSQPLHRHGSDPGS
T1 sequence (Q99835 whole entry): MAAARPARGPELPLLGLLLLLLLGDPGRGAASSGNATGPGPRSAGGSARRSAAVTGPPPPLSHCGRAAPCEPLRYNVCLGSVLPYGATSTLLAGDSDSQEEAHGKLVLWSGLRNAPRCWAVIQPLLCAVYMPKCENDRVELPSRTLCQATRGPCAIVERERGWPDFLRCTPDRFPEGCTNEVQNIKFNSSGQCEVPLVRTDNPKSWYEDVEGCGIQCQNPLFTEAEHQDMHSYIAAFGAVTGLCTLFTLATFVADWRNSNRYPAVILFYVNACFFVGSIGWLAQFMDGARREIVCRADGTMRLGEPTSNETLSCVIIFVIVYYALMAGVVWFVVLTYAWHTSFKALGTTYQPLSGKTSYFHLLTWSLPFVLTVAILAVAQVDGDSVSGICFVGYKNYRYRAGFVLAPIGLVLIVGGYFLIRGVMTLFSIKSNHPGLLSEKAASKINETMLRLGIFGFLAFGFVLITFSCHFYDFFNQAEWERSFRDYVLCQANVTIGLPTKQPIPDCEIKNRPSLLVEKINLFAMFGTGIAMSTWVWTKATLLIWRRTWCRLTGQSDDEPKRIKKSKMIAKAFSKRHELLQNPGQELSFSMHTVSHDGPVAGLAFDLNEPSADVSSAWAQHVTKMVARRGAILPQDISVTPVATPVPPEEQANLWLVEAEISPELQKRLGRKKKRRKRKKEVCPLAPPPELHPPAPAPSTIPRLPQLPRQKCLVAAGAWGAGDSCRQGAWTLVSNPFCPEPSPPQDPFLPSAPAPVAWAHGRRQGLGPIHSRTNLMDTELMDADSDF

| SMILES | IC50 [1] [nM] | IC50 (Protein smoothened [2]) [nM] | IC50 (Protein smoothened [3]) [nM] | logD [4] | microsomal CLint [5] [µL/min/mg] | microsomal CLint [6] [µL/min/mg] | IC50 [7] [nM] | clearance [8] [mL/min/kg] |
| --- | --- | --- | --- | --- | --- | --- | --- | --- |
| O=C(NCC1(N2CCOCC2)CCCC1)N1CCC(c2nc(-c3ccc4ccccc4n3)no2)CC1 | 46 | 30 | 100 | 2.62 | > 500 | > 400 | 10000 | – |
| O=C(NCC1(c2ccccc2)CCCC1)N1CCC(c2nc(-c3ccc4ccccc4n3)no2)CC1 | 410 | 810 | 4500 | – | – | – | – | – |
| O=C(NCC1(CO)CCCC1)N1CCC(c2nc(-c3ccc4ccccc4n3)no2)CC1 | 600 | 910 | 6900 | – | – | – | – | – |
| O=C(NCC1(C(=O)N2CCCCC2)CCCC1)N1CCC(c2nc(-c3ccc4ccccc4n3)no2)CC1 | – | 230 | 7000 | – | – | – | – | – |
| CC(=O)NC1(CNC(=O)N2CCC(c3nc(-c4ccc5ccccc5n4)no3)CC2)CCCC1 | 190 | 320 | 13000 | – | – | – | – | – |
| CC(C)(C)OC(=O)NC1(CNC(=O)N2CCC(c3nc(-c4ccc5ccccc5n4)no3)CC2)CCCC1 | 2000 | 2000 | 14000 | – | – | – | – | – |
| O=C(NCCN1CCOCC1)N1CCC(c2nc(-c3ccc4ccccc4n3)no2)CC1 | 2500 | 4900 | 3400 | – | – | – | – | – |
| CC(C)(CNC(=O)N1CCC(c2nc(-c3ccc4ccccc4n3)no2)CC1)N1CCOCC1 | 450 | 290 | 670 | – | > 300 | 112 | – | – |
| O=C(NCC1(N2CCOCC2)CCCCC1)N1CCC(c2nc(-c3ccc4ccccc4n3)no2)CC1 | 140 | 23 | 72 | – | > 500 | > 500 | 4300 | – |
| O=C(NCC1(N2CCOCC2)CCCCCC1)N1CCC(c2nc(-c3ccc4ccccc4n3)no2)CC1 | 330 | 240 | 480 | – | – | – | – | – |
| O=C(NCC1(N2CCCC2)CCCC1)N1CCC(c2nc(-c3ccc4ccccc4n3)no2)CC1 | 69 | 32 | 42 | – | 100 | 52 | 7100 | – |
| O=C(NCC1(N2CCCCC2)CCCC1)N1CCC(c2nc(-c3ccc4ccccc4n3)no2)CC1 | 100 | 46 | 51 | – | 160 | 49 | – | > 100 |
| CCN(CC)C1(CNC(=O)N2CCC(c3nc(-c4ccc5ccccc5n4)no3)CC2)CCCC1 | 120 | 55 | 46 | – | > 200 | 98 | 9400 | – |
| CN(C)C1(CNC(=O)N2CCC(c3nc(-c4ccc5ccccc5n4)no3)CC2)CCCC1 | 310 | 300 | 370 | – | 27 | 40 | 38000 | – |
| NC1(CNC(=O)N2CCC(c3nc(-c4ccc5ccccc5n4)no3)CC2)CCCC1 | 350 | 630 | 790 | – | – | – | – | – |
| CCNC1(CNC(=O)N2CCC(c3nc(-c4ccc5ccccc5n4)no3)CC2)CCCC1 | 88 | 46 | 91 | – | 51 | 7 | 24000 | – |
| CC(C)NC1(CNC(=O)N2CCC(c3nc(-c4ccc5ccccc5n4)no3)CC2)CCCC1 | 25 | 16 | 58 | – | – | – | – | – |
| O=C(NCC1(NC2CCCCC2)CCCC1)N1CCC(c2nc(-c3ccc4ccccc4n3)no2)CC1 | 430 | 140 | 520 | – | – | – | – | – |
| O=C(NCC1(N2CCC(F)CC2)CCCC1)N1CCC(c2nc(-c3ccc4ccccc4n3)no2)CC1 | 90 | 110 | 200 | – | – | – | – | – |

| SMILES | IC50 [1] [nM] | IC50 (Protein smoothened [2]) [nM] | IC50 (Protein smoothened [3]) [nM] | logD [4] | microsomal CLint [5] [µL/min/mg] | microsomal CLint [6] [µL/min/mg] | IC50 [7] [nM] | clearance [8] [mL/min/kg] |
| --- | --- | --- | --- | --- | --- | --- | --- | --- |
| O=C(NCC1(N2CCC(F)(F)CC2)CCCC1)N1CCC(c2nc(-c3ccc4ccccc4n3)no2)CC1 | 100 | 180 | 950 | – | – | – | – | – |
| COC1CCN(C2(CNC(=O)N3CCC(c4nc(-c5ccc6ccccc6n5)no4)CC3)CCCC2)CC1 | 260 | 210 | 530 | – | – | – | – | – |
| CN1CCN(C2(CNC(=O)N3CCC(c4nc(-c5ccc6ccccc6n5)no4)CC3)CCCC2)CC1 | 450 | 510 | 400 | – | – | – | – | – |
| O=C(NCC(c1ccccc1)N1CCCCC1)N1CCC(c2nc(-c3ccc4ccccc4n3)no2)CC1 (stereo not given) | 130 | 210 | 330 | – | – | – | – | – |
| O=C(NCC(c1ccccn1)N1CCOCC1)N1CCC(c2nc(-c3ccc4ccccc4n3)no2)CC1 (stereo not given) | 790 | 2700 | 4200 | – | – | – | – | – |
| O=C(NCC(c1cccnc1)N1CCOCC1)N1CCC(c2nc(-c3ccc4ccccc4n3)no2)CC1 (stereo not given) | 4200 | 2600 | 9900 | – | – | – | – | – |
| O=C(NCC(c1ccncc1)N1CCOCC1)N1CCC(c2nc(-c3ccc4ccccc4n3)no2)CC1 (stereo not given) | 8200 | 8600 | 17000 | – | – | – | – | – |
| CCN1CCCC1CNC(=O)N1CCC(c2nc(-c3ccc4ccccc4n3)no2)CC1 (stereo not given) | – | 290 | 490 | – | – | – | – | – |
| CC(C)N1CCCC1CNC(=O)N1CCC(c2nc(-c3ccc4ccccc4n3)no2)CC1 (stereo not given) | 850 | 340 | 650 | – | 19 | 10 | – | > 100 |
| CCN1CCCCC1CNC(=O)N1CCC(c2nc(-c3ccc4ccccc4n3)no2)CC1 (stereo not given) | 130 | 64 | 80 | – | – | – | – | – |
| CCN1CCOCC1CNC(=O)N1CCC(c2nc(-c3ccc4ccccc4n3)no2)CC1 (stereo not given) | 230 | 300 | 390 | – | – | – | – | – |
| O=C(NCC1NCCc2ccccc21)N1CCC(c2nc(-c3ccc4ccccc4n3)no2)CC1 (stereo not given) | 960 | 380 | 600 | – | – | – | – | – |
| CN1CCc2ccccc2C1CNC(=O)N1CCC(c2nc(-c3ccc4ccccc4n3)no2)CC1 (stereo not given) | 380 | 360 | 470 | – | – | – | – | – |
| Cn1c(-c2noc(C3CCN(C(=O)NCC4(N5CCOCC5)CCCC4)CC3)n2)nc2ccccc21 | 18 | 17 | 15 | – | – | – | – | – |
| Cn1c(-c2noc(C3CCN(C(=O)NCC4(N5CCCCC5)CCCC4)CC3)n2)nc2ccccc21 | 23 | 21 | 19 | – | – | – | – | – |
| O=C(NCC1(N2CCOCC2)CCCC1)N1CCN(c2nc(-c3ccc4ccccc4n3)no2)CC1 | 16 | 10 | 15 | – | – | – | – | – |
| O=C(NCC1(N2CCCCC2)CCCC1)N1CCN(c2nc(-c3ccc4ccccc4n3)no2)CC1 | 40 | 8 | 10 | – | – | – | – | > 100 |
| Cn1c(-c2noc(N3CCN(C(=O)NCC4(N5CCCCC5)CCCC4)CC3)n2)nc2ccccc21 | 4 | 5 | 6 | – | – | – | – | – |
| O=C(NC1CCC(F)(F)CC1)N1CCN(c2nc(-c3ccc4ccccc4n3)no2)CC1 | 5 | 13 | 13 | – | – | – | – | – |
